ChEMBL document CHEMBL1131559, “Novel quinolone derivatives as potent antibacterials” (1998)

How the values were obtained:
Klebsiella pneumoniae [1] = test: Compound was evaluated for in vitro antibacterial activity against gram negative organism Klebsiella pneumoniae strain ATCC 10031; assay type: functional
Klebsiella pneumoniae [2] = test: Compound was evaluated for in vitro antibacterial activity against gram negative organism Klebsiella pneumoniae strain DRCC 136; assay type: functional
Enterococcus faecalis [3] = test: Compound was evaluated for in vitro antibacterial activity against gram positive organism Streptococcus faecalis strain ATCC 51299; assay type: functional
[4] = test system: Salmonella enterica subsp. enterica serovar Abony; test: Compound was evaluated for in vitro antibacterial activity against gram negative organism Salmonella abony strain NCIM 2257; assay type: functional
Pseudomonas aeruginosa [5] = test: Compound was evaluated for in vitro antibacterial activity against gram negative organism Pseudomonas aeruginosa strain DRCC 131; assay type: functional
Staphylococcus aureus [6] = test: Compound was evaluated for in vitro antibacterial activity against gram positive organism Staphylococcus aureus strain MTCC 737; assay type: functional
Pseudomonas fluorescens = test: Compound was evaluated for in vitro antibacterial activity against gram negative organism Pseudomonas fluorescence strain DRCC 008; assay type: functional
Pseudomonas aeruginosa [7] = test: Compound was evaluated for in vitro antibacterial activity against gram negative organism Pseudomonas aeruginosa strain DRCC 135; assay type: functional
Escherichia coli [8] = test: Compound was evaluated for in vitro antibacterial activity against gram negative organism Escherichia coli strain DRCC 134; assay type: functional
Escherichia coli [9] = test: Compound was evaluated for in vitro antibacterial activity against gram negative organism Escherichia coli strain DRCC 133; assay type: functional
Staphylococcus aureus [10] = test: Compound was evaluated for in vitro antibacterial activity against gram positive organism Staphylococcus aureus strain ATCC 29213; assay type: functional
Salmonella typhimurium = test: Compound was evaluated for in vitro antibacterial activity against gram negative organism Salmonella Typhimurium MTCC 98; assay type: functional, Salmonella enterica subsp. enterica serovar Typhimurium; conditions: Salmonella enterica
Klebsiella pneumoniae [11] = test: Compound was evaluated for in vitro antibacterial activity against gram negative organism Klebsiella pneumoniae strain DRCC 132; assay type: functional
Escherichia coli [12] = test: Compound was evaluated for in vitro antibacterial activity against gram negative organism Escherichia coli strain ATCC 35218; assay type: functional
Staphylococcus aureus [13] = test: Compound was evaluated for in vitro antibacterial activity against gram positive organism Staphylococcus aureus strain ATCC 33591; assay type: functional
Pseudomonas aeruginosa [14] = test: Compound was evaluated for in vitro antibacterial activity against gram negative organism Pseudomonas aeruginosa strain MTCC 1688; assay type: functional
Enterococcus faecalis [15] = test: Compound was evaluated for in vitro antibacterial activity against gram positive organism Streptococcus faecalis strain ATCC 29212; assay type: functional
Staphylococcus aureus [16] = test: Compound was evaluated for in vitro antibacterial activity against gram positive organism Staphylococcus aureus strain ATCC 33592; assay type: functional
Pseudomonas aeruginosa [17] = test: Compound was evaluated for in vitro antibacterial activity against gram negative organism Pseudomonas aeruginosa strain DRCC 137; assay type: functional
Escherichia coli [18] = test: Compound was evaluated for in vitro antibacterial activity against gram negative organism Escherichia coli strain ATCC 25922; assay type: functional
[19] = test system: Staphylococcus epidermidis; test: Compound was evaluated for in vitro antibacterial activity against gram positive organism Staphylococcus epidermidis strain ATCC 12228; assay type: functional
Pseudomonas aeruginosa [20] = test: Compound was evaluated for in vitro antibacterial activity against gram negative organism Pseudomonas aeruginosa strains ATCC 27853; assay type: functional
Salmonella typhi = test: Compound was evaluated for in vitro antibacterial activity against gram negative organism Salmonella typhi strain MTCC 531; assay type: functional, Salmonella enterica subsp. enterica serovar Typhi; conditions: Salmonella enterica
Enterococcus faecalis [21] = test: Compound was evaluated for in vitro antibacterial activity against gram positive organism Streptococcus faecalis strain ATCC 49384; assay type: functional
Staphylococcus aureus [22] = test: Compound was evaluated for in vitro antibacterial activity against gram positive organism Staphylococcus aureus strain ATCC 6538P; assay type: functional
Escherichia coli [23] = test: Compound was evaluated for in vitro antibacterial activity against gram negative organism Escherichia coli strain DRCC 091; assay type: functional
Streptococcus pyogenes = test: Compound was evaluated for in vitro antibacterial activity against gram positive organism Streptococcus pyogenes strain DRCC 092; assay type: functional

| SMILES | MIC (Klebsiella pneumoniae [1]) [µg/mL] | MIC (Klebsiella pneumoniae [2]) [µg/mL] | MIC (Enterococcus faecalis [3]) [µg/mL] | MIC [4] [µg/mL] | MIC (Pseudomonas aeruginosa [5]) [µg/mL] | MIC (Staphylococcus aureus [6]) [µg/mL] | MIC (Pseudomonas fluorescens) [µg/mL] | MIC (Pseudomonas aeruginosa [7]) [µg/mL] | MIC (Escherichia coli [8]) [µg/mL] | MIC (Escherichia coli [9]) [µg/mL] | MIC (Staphylococcus aureus [10]) [µg/mL] | MIC (Salmonella typhimurium) [µg/mL] | MIC (Klebsiella pneumoniae [11]) [µg/mL] | MIC (Escherichia coli [12]) [µg/mL] | MIC (Staphylococcus aureus [13]) [µg/mL] | MIC (Pseudomonas aeruginosa [14]) [µg/mL] | MIC (Enterococcus faecalis [15]) [µg/mL] | MIC (Staphylococcus aureus [16]) [µg/mL] | MIC (Pseudomonas aeruginosa [17]) [µg/mL] | MIC (Escherichia coli [18]) [µg/mL] | also measured |
| --- | --- | --- | --- | --- | --- | --- | --- | --- | --- | --- | --- | --- | --- | --- | --- | --- | --- | --- | --- | --- | --- |
| CN[C@@H]1CN(c2cc3c(cc2F)c(=O)c(C(=O)O)cn3-c2ccccc2F)C[C@H]1NC.O=C(O)C(F)(F)F | 0.06 | 2 | 2 | 1 | 0.5 | 4 | > 8 | > 8 | > 8 | > 8 | 4 | 1 | > 8 | 0.5 | 1 | 4 | 4 | 4 | > 8 | 1 | MIC [19]: 2 µg/mL; MIC (Pseudomonas aeruginosa [20]): 4 µg/mL; MIC (Salmonella typhi): 4 µg/mL; MIC (Enterococcus faecalis [21]): 4 µg/mL; MIC (Staphylococcus aureus [22]): 0.5 µg/mL; MIC (Escherichia coli [23]): > 8 µg/mL; MIC (Streptococcus pyogenes): 0.03 µg/mL |
| CCn1cc(C(=O)O)c(=O)c2cc(F)c(N3C[C@@H](N)[C@H](N)C3)c(F)c21.Cl | 0.125 | > 8 | 2 | 8 | > 8 | 2 | 4 | > 8 | > 8 | > 8 | 2 | 0.5 | > 8 | 1 | 2 | 1 | 4 | 4 | > 8 | 0.5 | MIC [19]: 2 µg/mL; MIC (Pseudomonas aeruginosa [20]): > 8 µg/mL; MIC (Salmonella typhi): 1 µg/mL; MIC (Enterococcus faecalis [21]): 4 µg/mL; MIC (Staphylococcus aureus [22]): 2 µg/mL; MIC (Escherichia coli [23]): > 8 µg/mL; MIC (Streptococcus pyogenes): 2 µg/mL |
| CN[C@@H]1CN(c2c(F)c(N)c3c(=O)c(C(=O)O)cn(C4CC4)c3c2F)C[C@H]1NC.Cl | 0.06 | 0.5 | 0.25 | 0.25 | 1 | 0.25 | > 8 | > 8 | > 8 | > 8 | 0.25 | 0.125 | > 8 | 0.5 | 0.25 | 0.5 | 1 | 0.25 | > 8 | 0.06 | MIC [19]: 1 µg/mL; MIC (Pseudomonas aeruginosa [20]): 4 µg/mL; MIC (Salmonella typhi): 0.25 µg/mL; MIC (Enterococcus faecalis [21]): 1 µg/mL; MIC (Staphylococcus aureus [22]): 0.5 µg/mL; MIC (Escherichia coli [23]): > 8 µg/mL; MIC (Streptococcus pyogenes): 0.03 µg/mL |
| CN[C@@H]1CN(c2cc3c(cc2F)c(=O)c(C(=O)O)cn3C2CC2)C[C@H]1NC.Cl | 0.06 | 0.5 | 0.25 | 1 | 2 | 1 | > 8 | > 8 | > 8 | > 8 | 1 | 0.5 | > 8 | 0.25 | 1 | 2 | 2 | 0.5 | > 8 | 0.125 | MIC [19]: 0.5 µg/mL; MIC (Pseudomonas aeruginosa [20]): 4 µg/mL; MIC (Salmonella typhi): 0.5 µg/mL; MIC (Enterococcus faecalis [21]): 4 µg/mL; MIC (Staphylococcus aureus [22]): 0.5 µg/mL; MIC (Escherichia coli [23]): > 8 µg/mL; MIC (Streptococcus pyogenes): 0.06 µg/mL |
| CN[C@@H]1CN(c2cc3c(cc2F)c(=O)c(C(=O)O)cn3-c2ccc(F)cc2)C[C@H]1NC.Cl | 0.125 | 0.5 | 0.25 | 0.5 | 0.25 | 0.5 | 2 | > 8 | > 8 | > 8 | 0.5 | 1 | > 8 | 1 | 1 | 2 | 0.5 | 0.25 | 1 | 0.5 | MIC [19]: 1 µg/mL; MIC (Pseudomonas aeruginosa [20]): 4 µg/mL; MIC (Salmonella typhi): 0.25 µg/mL; MIC (Enterococcus faecalis [21]): 0.5 µg/mL; MIC (Staphylococcus aureus [22]): 0.5 µg/mL; MIC (Escherichia coli [23]): > 8 µg/mL; MIC (Streptococcus pyogenes): 1 µg/mL |
| Cl.N[C@@H]1CN(c2cc3c(cc2F)c(=O)c(C(=O)O)cn3-c2ccc(F)cc2)C[C@H]1N | 1 | > 8 | 1 | 4 | 1 | 1 | 2 | > 8 | > 8 | > 8 | 1 | 1 | > 8 | 1 | 1 | 2 | 2 | 1 | > 8 | 1 | MIC [19]: 1 µg/mL; MIC (Pseudomonas aeruginosa [20]): 8 µg/mL; MIC (Salmonella typhi): > 8 µg/mL; MIC (Enterococcus faecalis [21]): 1 µg/mL; MIC (Staphylococcus aureus [22]): 1 µg/mL; MIC (Escherichia coli [23]): > 8 µg/mL; MIC (Streptococcus pyogenes): 0.5 µg/mL |
| CCn1cc(C(=O)O)c(=O)c2cc(F)c(N3C[C@@H](NC)[C@H](NC)C3)c(F)c21.Cl | 0.5 | 8 | 2 | 8 | > 8 | 4 | 4 | > 8 | > 8 | > 8 | 4 | 1 | > 8 | 1 | 1 | 1 | 4 | 4 | 8 | 0.5 | MIC [19]: 2 µg/mL; MIC (Pseudomonas aeruginosa [20]): 8 µg/mL; MIC (Salmonella typhi): 1 µg/mL; MIC (Enterococcus faecalis [21]): 8 µg/mL; MIC (Staphylococcus aureus [22]): 4 µg/mL; MIC (Escherichia coli [23]): > 8 µg/mL; MIC (Streptococcus pyogenes): 4 µg/mL |
